The record followed here is patent US6365614B1, “Fungicides mixtures” (priority 1997, dated 2002).

In the assay the test system is Plasmopara viticola. The experiment in a line: Curative action against Plasmopara viticola on potted grapevines. The class given is in vivo, Plasmopara viticola on grapevines cv. Müller-Thurgau. Particulars: grapevine leaves, untreated control 73% infection. The protocol: Curative action against Plasmopara viticola
Leaves of potted grapevines cv. “Müller-Thurgau” were inoculated with an aqueous zoospore suspension of Plasmopara viticola. The grapevines were subsequently kept in a water-vapor-saturated chamber at 22-24° C. for 48 hours. They were then removed from the chambers and, after they had dried, sprayed to run off point with an aqueous preparation of active compound which had been prepared from a stock solution comprising 10% of active compound, 63% of cyclohexanone and 27% of emulsifier. After the spray coating had dried on, the plants were cultivated for another 5 days in the greenhouse at 20-30° C. After this time, the plants were returned into a humid chamber for 16 hours to accelerate the eruption of sporangiophore. The extent to which the disease had developed on the undersides of the leaves was then determined visually in %.
Evaluation is carried out by determining the infected leaf areas in percent. These percentages are converted into efficacies. The expected efficacies of the active compound mixtures are determined using Colby's formula [R. S. Colby, Weeds 15, 20-22 (1967)] and compared with the observed efficacies. Colby's formula: […]
expected efficacy, expressed in % of the untreated control, when using the mixture of the active compounds A, B and C at the concentrations a, b and c x efficacy, expressed in % of the untreated control, when using active compound A at a concentration of a y efficacy, expressed in % of the untreated control, when using active compound B at a concentration of b z efficacy, expressed in % of the untreated control, when using active compound C at a concentration of c The efficacy(E) is calculated as follows using Abbot's formula: […]
α corresponds to the fungal infection of the treated plants in % and β corresponds to the fungal infection of the untreated (control) plants in % An efficacy of 0 means that the infection level of the treated plants corresponds to that of the untreated control plants; an efficacy of 100 means that the treated plants were not infected.

Setting [1] is: 1 ppm active compound in the spray liquor.

Molecules are shown by their SMILES.

On to `Cc1cccc(C)c1N(C(=O)CCl)C1CCOC1=O` (stereo not shown) [II.2, Ofurace], for which the “Efficacy in % of the untreated control” value is given as 0% under setting [1], 73% (4 ppm active compound in the spray liquor) and 73% (16 ppm active compound in the spray liquor).
As to `COCC(=O)N(c1c(C)cccc1C)C(C)C(=O)OC` (stereo not shown) [II.3, metalaxyl], the “Efficacy in % of the untreated control” value under setting [1] stood at 59%.
